In patent publication US6387913B1, “Method of treating airway diseases with combined administration of A2B and A3 adenosine receptor antagonists” (priority 2000, dated 2002):

Columns and labels:
Format in all cases: in vivo
A2A adenosine receptor = target: T1, A2A adenosine receptor (Mus musculus, UniProt Q60613); test: Effect of A2A antagonist on dose-responsiveness to CGS-21680 (Penh) in a mouse model of asthma; settings: DMPX 10^-4 M nebulized 3 minutes, agonist dose response 15 minutes later; control and sensitized mice
T1 construct: from tissue; host or cells: live mouse (airways/lung), control and sensitized animals
Method: FIG. 2 illustrates the effect of DMPX (10^−4 M) on dose-responsiveness to […] (ug/ml). Con=solid line, Sen=dashed line, Con+DMPX=broken line, and Sen+DMPX=dotted line.
FIG. 2 illustrates the effect of DMPX (10^−4 M) on dose-responsiveness to […]. The animals were nebulized with DMPX (10^−4 M) for 3 minutes and 15 minutes later the dose response to CGS-21680 was performed. n=8 for each group. CGS-21680 is an A2A adenosine receptor agonist; DMPX is an A2A adenosine receptor antagonist.

A1 adenosine receptor = target: T2, A1 adenosine receptor (Mus musculus, UniProt Q60612); test: Effect of A1 antagonist on dose-responsiveness to CPA (Penh) in a mouse model of asthma; settings: DPCPX 10^-4 M nebulized 3 minutes, CPA dose response 15 minutes later; control and sensitized mice
T2 construct: from tissue; host or cells: live mouse (airways/lung), control and sensitized animals
T2 sequence (Q60612 1-326): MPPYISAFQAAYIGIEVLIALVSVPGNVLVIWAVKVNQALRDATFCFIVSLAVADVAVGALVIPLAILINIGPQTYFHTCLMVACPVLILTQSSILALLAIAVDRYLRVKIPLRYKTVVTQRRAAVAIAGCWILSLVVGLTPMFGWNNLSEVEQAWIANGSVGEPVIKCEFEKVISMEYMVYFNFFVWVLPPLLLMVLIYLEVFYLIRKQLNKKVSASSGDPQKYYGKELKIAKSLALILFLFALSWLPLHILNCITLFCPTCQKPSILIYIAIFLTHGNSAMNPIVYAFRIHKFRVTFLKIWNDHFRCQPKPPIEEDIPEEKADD
Method: FIG. 1 illustrates the effect of DPCPX (10^−4 M) on dose-responsiveness to CPA (micrograms per milliliter—ug/ml) in a mouse model of asthma. Control (Con)=dotted line, sensitized (Sen)=broken line, Con+DPCPX=solid line, and Sen+DPCPX=dashed line. Penh=percentage of saline in all Figures.
FIG. 1 illustrates the effect of DPCPX (10^−4 M) on dose-responsiveness to CPA in a mouse model of asthma. The animals were nebulized with DPCPX […] for 3 minutes and 15 minutes later the dose response to CPA was performed. n=8 for each group. CPA is an A1 adenosine receptor agonist; DPCPX is an A1 adenosine receptor antagonist.

A3 adenosine receptor = target: T3, A3 adenosine receptor (Mus musculus, UniProt Q61618); test: Effect of MRS1220 on dose-responsiveness to IB-CL-MECA (bronchospasm) in a mouse model of asthma; settings: MRS1220 10^-6 M; control and sensitized mice
T3 construct: from tissue; host or cells: live mouse (airways/lung), control and sensitized animals
T3 sequence (Q61618 1-319): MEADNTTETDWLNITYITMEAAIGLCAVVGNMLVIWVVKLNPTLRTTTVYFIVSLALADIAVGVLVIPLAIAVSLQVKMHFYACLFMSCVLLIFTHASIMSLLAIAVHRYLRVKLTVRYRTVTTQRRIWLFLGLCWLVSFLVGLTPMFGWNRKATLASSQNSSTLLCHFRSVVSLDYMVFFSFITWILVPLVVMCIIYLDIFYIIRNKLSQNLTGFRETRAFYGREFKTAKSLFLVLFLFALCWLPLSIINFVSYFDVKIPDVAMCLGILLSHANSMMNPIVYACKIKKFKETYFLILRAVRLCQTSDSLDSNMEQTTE
From the text: Con=solid line, Sen=dotted line, Con+MRS=broken line, and Sen+MRS=dashed line.
Therefore, the combination of A3 and A2B antagonists appear better at blocking the adenosine-induced bronchospasm in a mouse model of asthma.

A2B adenosine receptor = target: T4, A2B adenosine receptor (Mus musculus, UniProt Q60614); test: Effect of enprofylline on dose-responsiveness to NECA (Penh) in a mouse model of asthma; settings: enprofylline 12 mg/ml nebulized, NECA dose-response 15 minutes later; control and sensitized mice
T4 construct: from tissue; host or cells: live mouse (airways/lung), control and sensitized animals
T4 sequence (Q60614 1-332): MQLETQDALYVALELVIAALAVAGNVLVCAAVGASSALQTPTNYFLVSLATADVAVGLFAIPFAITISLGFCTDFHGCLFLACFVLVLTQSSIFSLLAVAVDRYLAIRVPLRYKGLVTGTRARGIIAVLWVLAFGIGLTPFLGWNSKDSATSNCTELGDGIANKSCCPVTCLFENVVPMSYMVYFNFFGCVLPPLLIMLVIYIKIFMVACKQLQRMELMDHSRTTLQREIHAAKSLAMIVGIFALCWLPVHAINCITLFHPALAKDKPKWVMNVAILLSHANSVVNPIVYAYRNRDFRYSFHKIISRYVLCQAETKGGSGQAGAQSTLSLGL
Method: FIG. 3 illustrates the effect of enprofylline (enp; 12 mg/ml) on dose-responsiveness to 5′-(N-ethyl)carboxamidoadenosine (NECA, in ug/ml). Con=dotted line, Sen=dashed line, Con+enp=solid line, and Sen+enp=broken line.
FIG. 3 illustrates the effect of enprofylline (12 mg/ml) on dose-responsiveness to NECA. The animals were nebulized with enprofylline (12 mg/ml) for 1 minutes and 15 minutes later the dose-response to […] was performed. * p<0.05 compared to Sen+Enp group. # p<0.05 compared to control group. n=10 for each group. NECA is a non-selective adenosine receptor agonist; enprofylline is an A2B adenosine receptor antagonist.

T1 sequence (Q60613 whole entry): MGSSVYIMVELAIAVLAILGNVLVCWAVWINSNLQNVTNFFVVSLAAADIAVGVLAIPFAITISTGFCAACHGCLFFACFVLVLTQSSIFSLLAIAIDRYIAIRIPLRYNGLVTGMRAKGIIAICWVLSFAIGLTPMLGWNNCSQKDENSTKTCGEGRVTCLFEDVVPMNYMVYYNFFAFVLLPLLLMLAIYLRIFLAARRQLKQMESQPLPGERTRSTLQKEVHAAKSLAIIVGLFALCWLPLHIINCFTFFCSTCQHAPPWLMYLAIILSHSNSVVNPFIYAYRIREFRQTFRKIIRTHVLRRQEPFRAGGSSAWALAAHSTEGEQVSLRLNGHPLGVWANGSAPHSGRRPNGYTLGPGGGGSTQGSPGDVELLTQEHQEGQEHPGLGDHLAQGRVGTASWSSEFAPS

## C#CCn1c(=O)c2c(ncn2C)n(C)c1=O [DMPX]
A2A adenosine receptor
  effect on dose-responsiveness to CGS-21680 (Penh): no A2A adenosine receptor involvement

## CCCn1c(=O)c2[nH]c(C3CCCC3)nc2n(CCC)c1=O [DPCPX]
A1 adenosine receptor
  effect on dose-responsiveness to CPA (Penh): no A1 adenosine receptor involvement

## O=C(Cc1ccccc1)Nc1nc2ccc(Cl)cc2c2nc(-c3ccco3)nn12 [MRS1220]
A3 adenosine receptor
  block of the bronchospasm produced by IB-CL-MECA: did not completely block the bronchospasm

## CCCn1c(=O)[nH]c(=O)c2[nH]cnc21 [enprofylline]
A2B adenosine receptor
  block of the response to NECA (Penh): did not totally block the response
